Source: patent US20220151993A1, “TREATMENT OF ANXIETY AND DEPRESSION” (NEW YORK UNIVERSITY, priority 2020, published 2022)

Experiments:
[1] = tested on: patients with cancer-related psychiatric and existential distress; test: Lasting negative or adverse effects reported during long-term follow-up; format: in vivo, human; details: LTFU period; 13 of 14 participants provided information
Procedure: (§1) 29 participants were randomly assigned to one of two groups: psilocybin (0.3 mg/kg) on the first medication session followed by niacin (250 mg) on the second session (i.e. psilocybin-first group), or niacin (250 mg) on the first medication session followed by psilocybin (0.3 mg/kg) on the second session (i.e. niacin-first group). Psilocybin and niacin were administered in identically appearing gelatin capsules.
Participants received three 2-hour preparatory psychotherapy sessions in order to review the purpose and intention of participation in the study, treatment goals, and structure of the treatment sessions. Medications were administered in 8-hour treatment sessions which included a discussion of the participant's subjective experience with the treatment team to consolidate the memory of the experience and to begin the process of post-integrative psychotherapy. Participants also received three 2-hour post-medication integration sessions (repeated after the second dosing session) to further consolidate the memory of the experience and to continue the process of psychological integration. […]

[2] = tested on: patients with cancer-related psychiatric and existential distress; test: Spielberger State-Trait Anxiety Inventory (STAI), long-term follow-up; format: in vivo, human; details: single 0.3 mg/kg dose with psychotherapy; for STAI State Anxiety: baseline 43.94; for STAI Trait Anxiety: baseline 47.81
Procedure: (§2) The present example assesses the long-term effects of a single dose of psilocybin (0.3 mg/kg) in conjunction with psychotherapy in patients with cancer-related psychiatric and existential distress.
as §1
(§3) Participants received three 2-hour preparatory psychotherapy sessions in order to review the purpose and intention of participation in the study, treatment goals, and structure of the treatment sessions. Medications were administered in 8-hour treatment sessions which included a discussion of the participant's subjective experience with the treatment team to consolidate the memory of the experience and to begin the process of post-integrative psychotherapy. Participants also received three 2-hour post-medication integration sessions (repeated after the second dosing session) to further consolidate the memory of the experience and to continue the process of psychological integration. All psychotherapy treatment sessions were delivered by a dyadic therapy team trained in a blend of psychotherapies with an evidence base to support their use in cancer patients (drawing upon principles of palliative care therapy, existential psychotherapy, cognitive-behavioural therapy, psychoanalysis therapy, and transpersonal psychology) and were taught about the safety and clinical pharmacology of psilocybin. Each therapy dyad underwent six confidential one-to-one sessions to build their alliance and exchange ideas about psychedelic therapy. The trial employed a crossover design at seven weeks following the first drug administration, with an outcome assessment at 6.5 months (26 weeks) following the second drug administration (i.e. after the crossover).
(§4) Two long-term follow ups (LTFUs) were carried out to assess the continued effect of psilocybin. Of the original 29 participants, all 16 participants who were not deceased at the time of LTFU were contacted (the remaining 13 participants were deceased). Of the 16 participants who were contacted, 15 agreed to participate in the LTFU and completed measures through a secure online portal. One participant died (from cancer-related complications) after completing the first LTFU and prior to the second LTFU, leaving us with 14 participants at the second LTFU. The first and second LTFUs occurred on average 3.2 years (range 2.3-4.5 years) and 4.5 years (range 3.5-5.5 years) following the participants' psilocybin dosing date, respectively.
Primary outcomes (anxiety and depression) were measured according to the following methods: • Hospital Anxiety and Depression Scale (HADS) (Zigmond and Snaith, 1983)—this is widely used in hospital settings to screen for the severity of anxiety and depression. It contains 14 questions rated on a four-point scale (total score (HAD-T) ranges from 0-56). Subscale scores can be calculated for depression (HADS-D) and anxiety (HADS-A). […] The HADS has shown good reliability (Cronbach's a ranging from 0.80-0.93) and has been well validated (Herrmann, 1997). • Beck Depression Inventory-II (BDI-II) (Beck et al., 1988)—a widely used self-report screening measure for depression. […]

[3] = tested on: patients with cancer-related psychiatric and existential distress; test: Persisting Effects Questionnaire at second long-term follow-up; format: in vivo, human; details: second LTFU (4.5 years, n=14)
Procedure: as §1, §3
Two long-term follow ups (LTFUs) were carried out to assess the continued effect of psilocybin. Of the original 29 participants, all 16 participants who were not deceased at the time of LTFU were contacted (the remaining 13 participants were deceased). Of the 16 participants who were contacted, 15 agreed to participate in the LTFU and completed measures through a secure online portal. One participant died (from cancer-related complications) after completing the first LTFU and prior to the second LTFU, leaving us with 14 participants at the second LTFU. […]
Persisting effects of psilocybin were assessed using the Persisting Effects Questionnaire (Griffiths et al., 2006, 2008) assesses self-rated changes in one's attitude, mood, behavior, and experience of spirituality. […]

[4] = tested on: patients with life-threatening cancer; details: cited from earlier work
[5] = tested on: patients with cancer-related psychiatric and existential distress; test: Functional Assessment of Chronic Illness Therapy-Spiritual Well-Being (FACIT-Sp-12), long-term follow-up; format: in vivo, human; details: for Faith / Meaning/peace / Spiritual well-being: single 0.3 mg/kg dose with psychotherapy; for Faith: baseline 6.75; for Meaning/peace: baseline 19.43; for Spiritual well-being: baseline 55.69
Procedure: as §2, §1, §3, §4
Spirituality was assessed using the Functional Assessment of Chronic Illness Therapy-Spiritual Well-Being (FACIT-Sp-12; Bredle et al., 2011). This is a 12-item measure of spiritual well-being among individuals with cancer and other forms of chronic illness. Items are rated on a five-point Likert scale. The measure yields three subscales: a sense of meaning/peace in life, a sense of comfort from one's faith, and total spiritual well-being score. Total scores for each subscale range from 0-32, 0-16, and 0-48, respectively. Data have not been published regarding recommended cutoff scores for this measure. This measure has shown good reliability (Cronbach's a ranging from 0.81-0.88) and has been well validated (Bredle et al. 2011).
Regarding all analyses for both the primary and secondary outcome assessments, both the psilocybin-first and niacin-first dose sequence groups were collapsed and combined into one group. Reasons for this decision included the crossover design, which prevented valid between-group comparisons subsequent to the crossover, and a need to increase power given the modest sample size. […]

[6] = mean score at 4.5 years, p < 0.05 vs baseline
[7] = mean score at 4.5 years, p < 0.01 vs baseline
[8] = mean score at 6.5-8 months, p < 0.001 vs baseline

CN(C)CCc1c[nH]c2cccc(OP(=O)(O)O)c12 [psilocybin, [3-(2-dimethylaminoethyl)-1H-indol-4-yl] dihydrogen phosphate]
lasting negative or adverse effects from the psilocybin-assisted therapy experiences [1]: None of the participants reported lasting negative or adverse effects | STAI State Anxiety ([2]; mean score at 3.2 years, p < 0.01 vs baseline): 33.00 | STAI State Anxiety [2, 6]: 34.41 | STAI Trait Anxiety [2, 7]: 35.78 | STAI State Anxiety [2, 8]: 29.84 | STAI Trait Anxiety [2, 8]: 28.23 | participants appraising the psilocybin session as increasing life satisfaction or wellbeing [3]: 86% | participants rating the psilocybin experience the single or top-five most personally meaningful experience(s) of their lives [3]: Seventy-one | participants rating the psilocybin experience the single or top-five most spiritually significant experience(s) of their lives [3]: ninety-six | volunteers reporting moderate, strong or extreme positive behavioral change attributed to the psilocybin experience [3]: 100% | patients meeting criteria for clinically significant antidepressant or anxiolytic responses ([4]; final 6.5 month follow up point, 0.3 mg/kg with psychotherapy): 60-80% | time post dosing up to which rapid and sustained anxiolytic and antidepressant effects were seen ([4]; single dosing session 0.3 mg/kg with psychotherapy): up to 7 weeks | Faith ([5]; mean score at 3.2 years, p < 0.05 vs baseline): 9.31 | Meaning/peace ([5]; mean score at 3.2 years): 19.27 | Spiritual well-being ([5]; mean score at 3.2 years): 59.85 | Faith [5, 7]: 10.43 | Meaning/peace ([5]; mean score at 4.5 years): 20.20 | Spiritual well-being [5, 6]: 65.04 | Faith ([5]; mean score at 6.5-8 months, p < 0.01 vs baseline): 9.77 | Meaning/peace [5, 8]: 26.34 | Spiritual well-being [5, 8]: 70.58 | spiritual well-being and faith domains (FACIT-Sp-12) relative to baseline ([5]; second LTFU): significant improvements
